Source: patent publication US8975249B2, “Heterocyclic compounds and uses thereof” (Celgene Avilomics Research, Inc., priority 2010, dated 2015)
pEC50, pIC50: −log10 of the molar value. Read-outs that look alike come from different tables or passages of the source.

Columns and labels:
[1] = test system: HCC827 cells (EGFR delE746-A750); experiment: Cell proliferation (CellTiter Glo), HCC827 cells
Method: (§7) Cells were plated in Growth Media supplemented with 5% FBS and 1% P/S at a density of 3,000 cells per well in 96 well tissue culture plates (Corning). […] Growth inhibition (GI50) values were determined by Graph Pad Prism.

A431 cells (WT EGFR) = experiment: Cell proliferation (CellTiter Glo), A431 cells
Method: as §7

[2] = test system: H1975 cells (EGFR L858R/T790M); experiment: Cell proliferation (CellTiter Glo), H1975 cells
Method: as §7

EGFR (WT) = EGFR (WT) (Homo sapiens (Human), UniProt P00533); experiment: Omnia biochemical assay, EGFR-WT active enzyme; settings: [EGFR-WT]=5 nM, [ATP]=15 uM, 30 min pre-incubation
Method: Kinase reactions were started with the addition of 45 μL of the ATP/Tyr-Sox peptide substrate mix and monitored every 71 seconds for 60 minutes at λex360/λem485 in a Synergy^4 plate reader from BioTek (Winooski, Vt.).
The compound numbers correspond to the compound numbers in Table 1.

H1975 tumor = H1975 tumor in vivo study; settings: female nu/nu mice, H1975 subcutaneous, intraperitoneal 25 mg/kg daily for 21 days, determined at 15 days
Method: H1975 Tumor In Vivo Study
Female nu/nu mice were implanted with 1×10^7 H1975 tumor cells in 50% Matrigel subcutaneously (0.2 ml injection volume) in the flank. Tumor measurements were recorded three times per week. Tumors were pair matched when they reached an average size of 100-150 mg. Group size was 10 mice. Test compound was administered intraperitoneal, 25 mg/kg daily for 21 days. % Tumor inhibition values were determined at 15 days, the time at which the control group reached a maximum tumor volume. Tumor volume was followed until tumors reached 1500 mm^3 or 60 days.

[3] = target: EGFR double mutation L858R/T790M (H1975 cells) (Homo sapiens (Human), UniProt P00533, L858R/T790M); experiment: Phospho-EGFR signaling immunoblot in H1975 cells; assay type: cell-based; settings: for pEC50: H1975 cells, 1 hr treatment, phospho-EGFR (Y1068); for Ratio WT/mutant (H1975): signaling EC50 WT EGFR / H1975
Method: (§1) A431 human epidermoid carcinoma, H1975 human NSCLC and HCC827 human NSCLC adenocarcinoma cells were obtained from the American Type Culture Center (Manassas, Va.). A431 cells were grown in DMEM (Invitrogen, Carlsbad, Calif.) supplemented with 10% FBS (HyClone, South Logan, Utah) and 1% Penicillin-Streptomycin (P/S, Lonza, Walkersville, Md.).
(§2) All primary antibodies were obtained from Cell Signaling (Danvers, Mass.) and used at 1:1000. Secondary antibodies were used at 1:10,000. Goat anti-mouse IgG IRDye 800CW antibody was obtained from LiCor Biosciences (Lincoln, Nebr.) and goat anti-rabbit IgG Alexa Fluor 680 was obtained from Invitrogen.
(§3) Cells were grown in 12-well plates (Corning, Coring, N.Y.) to 90% confluence and then incubated in low-serum (0.1% FBS) media for 16-18 hr. […] A431 cells were then stimulated with 50 ng/ml EGF (Peprotech, Rocky Hill, N.J.) for 15 min. After treatment, cell monolayers were washed with cold PBS (Invitrogen) and immediately lysed by scrapping into 60 uL cold Cell Extraction Buffer (Invitrogen) supplemented with Complete Protease inhibitors (Roche, Indianapolis, Ind.) and PhosphoSTOP (Roche) phosphatase inhibitors.
(§4) Phospho-protein signals were quantitated using Odyssey Infrared Imaging (Li-Cor Biosciences).
(§5) To assess phosphor-EGFR signaling, blots were probed with rabbit anti-Phospho-EGFR (Y1068) and mouse total anti-EGFR antibodies. Phospho-EGFR signal was normalized to total EGFR expression for each sample. […] Normalized data was fitted using a sigmoidal curve analysis program (Graph Pad Prism version 5) with variable Hill slope to determine the EC50 values.
(§6) The compound numbers recited in Table 4 correspond to the compound numbers in Table 1.

WT EGFR (A431 cells) = WT EGFR (A431 cells) (Homo sapiens (Human), UniProt P00533); experiment: Phospho-EGFR signaling immunoblot in A431 cells (WT EGFR); assay type: cell-based; settings: 1 hr treatment, EGF stimulated, phospho-EGFR (Y1068)
Method: as §1, §2, §3, §4, §5, §6

[4] = target: EGFR Deletion/T790M Mutation (H1975 cells) (Homo sapiens (Human), UniProt P00533, L858R/T790M); experiment: Washout experiment in H1975 cells (pEGFR after compound removal); assay type: cell-based; settings: 500 nM for 1 hr, at 24 h after compound removal
Method: Washout Experiment in H1975 Cells Containing EGFR Deletion/T790M Mutation
Cells were plated in Growth Media supplemented with 10% FBS and 1% P/S at a density of 2.0×10^5 cells per well in 12 well tissue culture plates. Cells were allowed to settle down for 4 hrs and then maintained in low-serum (0.1% FBS) media overnight.
The following morning the media was removed and the cells were treated with 500 nM test compound in low-serum media for 1 hr. The cells were washed free of compound 2× with PBS (Invitrogen). One set of cells were immediately lysed as indicated above as the 0 hr time point. The remaining cells were incubated with complete RPMI-1640 growth media (10% FBS) for 1, 3, 6 and 24 hr. For the first 1 hr, cells were washed 2× with PBS every 30 min. DMSO (0.5%) controls were collected at the 0, 3, 6 and 24 hr time points.

[5] = target: EGFR delE746-A750 deletion mutation (HCC827 cells) (Homo sapiens (Human), UniProt P00533, DEL746-750); experiment: Phospho-EGFR signaling immunoblot in HCC827 cells; assay type: cell-based; settings: for pEC50: HCC827 cells, 1 hr treatment, phospho-EGFR (Y1068); for Ratio WT/mutant (HCC827): signaling EC50 WT EGFR / HCC827
Method: as §1, §2, §3, §4, §5, §6

[6] = proliferation GI50 WT EGFR / HCC827
[7] = proliferation GI50 WT EGFR / H1975

Compound | Ratio WT/mutant (HCC827) [1] | GI50 ([1]; Homo sapiens, HCC827, 72 h, read-out: HCC827 GI50 (nM)) [nM] | GI50 (A431 cells (WT EGFR); Homo sapiens, A-431, 72 h, read-out: WT EGFR GI50 (nM)) [nM] | Ratio WT/mutant (H1975) [2] | GI50 ([2]; Homo sapiens, NCI-H1975, 72 h, read-out: H1975 GI50 (nM)) [nM] | pIC50 (EGFR (WT)) | % Tumor inhibition (H1975 tumor) [%] | pEC50 [3] | Ratio WT/mutant (H1975) [3] | pEC50 (WT EGFR (A431 cells)) | Ratio WT/mutant (HCC827) [1, 6] | activity restored by new protein synthesis [4] | Ratio WT/mutant (H1975) [2, 7] | pEC50 [5] | Ratio WT/mutant (HCC827) [5] | GI50 ([1]; read-out: HCC827 GI50, HCC827 cells, 72 hr) [nM] | GI50 (A431 cells (WT EGFR); read-out: WT EGFR GI50, A431 cells, 72 hr) [nM] | GI50 ([2]; read-out: H1975 GI50, H1975 cells, 72 hr) [nM]
C=CC(=O)Nc1cccc(Oc2nc(Nc3ccc(N4CCN(C(C)=O)CC4)cc3OC)ncc2C(F)(F)F)c1 [Compound I-10, N-(3-(2-(4-(4-acetylpiperazin-1-yl)-2-methoxyphenylamino)-5-(trifluoromethyl)pyrimidin-4-yloxy)phenyl)acrylamide] | >20 | 100 to 500 | > 1000 | >1 | 500 to 1000 | 8.00 to 9.00 | – | – | – | – | – | – | – | – | – | – | – | –
C=CC(=O)Nc1cccc(Nc2nc(Nc3ccc(N4CCOCC4)cc3OC)ncc2C(F)(F)F)c1 [Compound I-2, N-(3-(2-(2-methoxy-4-morpholinophenylamino)-5-(trifluoromethyl)pyrimidin-4-ylamino)phenyl)acrylamide] | – | – | – | – | – | 7.52 to 8.00 | >66 | 7.00 to 8.00 | >50 | < 6.00 | >40 | 40-60% | >20 | – | – | – | – | –
C=CC(=O)Nc1cccc(Nc2nc(Nc3ccc(N4CCN(S(C)(=O)=O)CC4)cc3OC)ncc2C(F)(F)F)c1 [Compound I-17, N-(3-(2-(2-methoxy-4-(4-(methylsulfonyl)piperazin-1-yl)phenylamino)-5-(trifluoromethyl)pyrimidin-4-ylamino)phenyl)acrylamide] | – | – | – | – | – | 7.52 to 8.00 | – | 7.00 to 8.00 | >30 | < 6.00 | >15 | – | >10 | 6.30 to 7.00 | >5 | – | – | –
C=CC(=O)Nc1cccc(Nc2nc(Nc3ccc(N4CCOCC4)cc3OC(F)F)ncc2C(F)(F)F)c1 [Compound I-14, N-(3-(2-(2-(difluoromethoxy)-4-morpholinophenylamino)-5-(trifluoromethyl)pyrimidin-4-ylamino)phenyl)acrylamide] | – | – | – | – | – | 7.52 to 8.00 | – | 7.00 to 8.00 | >15 | 6.00 to 6.30 | >10 | – | >5 | 7.00 to 8.00 | >15 | – | – | –
C=CC(=O)Nc1cccc(Oc2nc(Nc3ccc(N4CCOCC4)cc3OC)ncc2Cl)c1 [Compound I-5, N-(3-(5-chloro-2-(2-methoxy-4-morpholinophenylamino)pyrimidin-4-yloxy)phenyl)acrylamide] | – | – | – | – | – | 7.52 to 8.00 | >33 | 7.00 to 8.00 | >30 | < 6.00 | >20 | – | >5 | – | – | – | – | –
C=CC(=O)Nc1cccc(Nc2nc(Nc3ccc(N4CCN(C(C)=O)CC4)cc3OC)ncc2C(F)(F)F)c1 [Compound I-4, N-(3-(2-(4-(4-acetylpiperazin-1-yl)-2-methoxyphenylamino)-5-(trifluoromethyl)pyrimidin-4-ylamino)phenyl)acrylamide] | – | – | – | – | – | – | >66 | – | – | – | – | 40-60% | – | – | – | – | – | –
N-(3-(5-chloro-2-(2-methoxy-4-morpholinophenylamino)pyrimidin-4-ylamino)phenyl)acrylamide [Compound I-15] | – | – | – | – | – | 7.00 to 7.52 | – | – | – | – | >10 | – | >1 | – | – | 100 to 500 | > 1000 | 500 to 1000
C=CC(=O)Nc1cccc(Oc2nc(Nc3ccc(N4CCN(C(=O)OC(C)(C)C)CC4)cc3OC)ncc2Cl)c1 [Compound I-46, tert-butyl 4-(4-(4-(3-acrylamidophenoxy)-5-chloropyrimidin-2-ylamino)-3-methoxyphenyl)piperazine-1-carboxylate] | >10 | – | – | >1 | – | 6.52 to 7.00 | – | 6.30 to 7.00 | >10 | < 6.00 | – | – | – | > 8.00 | >50 | – | – | –
C=CC(=O)Nc1cccc(Oc2nc(Nc3ccc(N4CCOCC4)cc3OC)ncc2C(F)(F)F)c1 [Compound I-1, N-(3-(2-(2-methoxy-4-morpholinophenylamino)-5-(trifluoromethyl)pyrimidin-4-yloxy)phenyl)acrylamide] | – | – | – | – | – | 7.00 to 7.52 | >66 | 7.00 to 8.00 | >50 | < 6.00 | >15 | – | >15 | – | – | – | – | –
